Data reported in article PMC8070745, “FEN1 Blockade for Platinum Chemo-Sensitization and Synthetic Lethality in Epithelial Ovarian Cancers” (Cancers, 2021).

Experiments:
Assay type in all cases: cell-based, human
A2780cis cells = test: Clonogenic assay, A2780cis
Procedure: (§1) Clonogenic assay: In the clonogenic assay (colony formation assays), 32 cells/cm2 were seeded in 6-well plates and left at 37°C in a 5% CO2 atmosphere. Cisplatin (5µM) and/or FEN1i (10µM) and/or Importazole (5 µM, Selleckem, S8446 ) were added at the indicated concentrations and the plates were left at 37 °C in a 5% CO 2 atmosphere for 14 days. Later, the plates were washed with PBS, fixed and stained with a crystal violet, acetic acid and methanol solution and colonies were counted. […]

PEO4 cells = test: Clonogenic assay, PEO4
Procedure: as §1

PEO1 cells = test: Clonogenic assay, PEO1
Procedure: as §1

PEO1R cells = test: Clonogenic assay, PEO1R; conditions: vs parental PEO1 cells
Procedure: as §1

PEO1R spheroids = test: 3D spheroid assay, PEO1R; conditions: vs PEO1 spheroids
Procedure: with ice cold PBS and fixed in 70% ethanol for 1h at -20°C. After removal of the fixative solution by centrifugation, cells were stained with 2 µg/ml of phospho-Histone (γH2AX) Ser139 (16202A, Millipore, UK) to detect DSBs.
Cell cycle progression: Cells were treated with 20 µg/ml RNase A (12091021, Invitrogen) and then 10 µg/ml Propidium Iodide (P4170, Sigma Aldrich) was added to determine the cell cycle distribution. The samples were analysed on a Beckman-Coulter FC500 flow cytometer using a 488nm laser for excitation and emission data for PI collected using a 620nm bandpass filter (FL3) and a 525nm bandpass filter (FL1) for FITC-anti-phospho-Histone H2A.X.
Apoptosis detection: Annexin V detection kit (556547, BD Biosciences) was used to quantify apoptotic cells. Briefly, cells were trypsinized, washed with PBS and the cellular pellet was re-suspended in Anexin Binding Buffer (1×). […] All the samples were analysed on a Beckman-Coulter FC500 flow cytometer. The percentage of apoptotic cells was determined (late apoptotic = FITC-Annexin V positive, PI positive early apoptotic = FITC-Annexin V positive, PI negative; live cells = FITC-Annexin V negative, PI negative) and compared for untreated and treated samples. […]
To quantify cell viability, LIVE/DEAD Viability/Cytotoxicity Kit (L3224, Thermo Fisher Scientific) was used. […] At least 10 spheroids were measured. […]

SMILES: Cc1csc2c1c(=O)n(O)c(=O)n2-c1ccccc1 [PTPD, 3-hydroxy-5-methyl-1-phenylthieno [2,3 d]pyrimidine-2,4(1H,3H)-dione]
- cytotoxicity of FEN1i monotherapy (A2780cis cells; 10 µM): non-toxic
- effect on cisplatin cytotoxicity (A2780cis cells; FEN1i 10 µM plus cisplatin): significantly enhanced the cytotoxicity of cisplatin
- effect on cisplatin cytotoxicity (PEO4 cells; FEN1i plus cisplatin): potentiated cisplatin cytotoxicity
- sensitivity to FEN1 inhibitor (PEO1 cells; BRCA2 deficient PEO1 vs BRCA2 proficient PEO4): more sensitive to FEN1 inhibition in comparison to PEO4 cells
- sensitivity to FEN1 inhibitor (PEO1R cells): resistant
- spheroid sensitivity to FEN1 inhibitor (PEO1R spheroids): resistant

SMILES: N.N.[Cl][Pt][Cl] [cisplatin]
- cisplatin sensitivity (A2780cis cells): cisplatin-resistant
- cisplatin sensitivity (PEO4 cells): cisplatin resistant
- cisplatin sensitivity (PEO1 cells): cisplatin sensitive
- sensitivity to cisplatin (PEO1R cells): resistant
- spheroid sensitivity to cisplatin (PEO1R spheroids): resistant
